The results in this text go back to ChEMBL document CHEMBL1201862, “PubChem BioAssay data set” (2004).

Some test systems named below: HCT-15; K562; KM-20L2; M19-MEL; MCF7; Malme-3M; NCI-H23; OVCAR-3; RXF 393; SF-539; SK-MEL-2; SN12C; SNB-19; SR; SW-620; UO-31; A498; HOP-92.
What all share (test): NCI tumour cell line growth inhibition, 48 h

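How tested: cells in 96-well plates exposed to compound for 48 hours at five concentrations. GI50 marks 50% less growth.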 Calls of active or inactive are those of the source. No stated cut-off is given here; in the data, active = GI50 up to about 1.1 µM and inactive = higher.

In the case of `CC[C@H]1CN2CCc3cc(OC)c(OC)cc3[C@@H]2C[C@@H]1C[C@H]1NCCc2cc(O)c(OC)cc21`, the GI50 was 0.0491 µM in the assay on HCT-15; 0.025 µM (active) in the assay with K562; 0.025 µM (active) in the assay on KM-20L2; 0.0253 µM (active) with M19-MEL; 0.025 µM (active) in the assay on MCF7; 0.0809 µM (active) in the assay with Malme-3M. The GI50 is 0.0261 µM (active) in the assay on NCI-H23; 0.0377 µM (active) in the assay with OVCAR-3; 0.0354 µM (active) in the assay with RXF 393; 0.0308 µM (active) with SF-539; 0.0319 µM (active) in the assay with SK-MEL-2; 0.0361 µM (active) in the assay on SN12C. Further, the GI50 is 0.025 µM (active) with SNB-19, < 10 nM (active) with SR, 0.025 µM (active) in the assay on SW-620 and 0.146 µM (active) with UO-31.

On to `C[S+](C)CC1OC(n2cnc3c(N)ncnc32)C(O)C1O` (configuration not stated), for which the GI50 in the assay with A498 is > 225 µM (inactive); with HCT-15 it was over 225 µM; with HOP-92, > 225 µM (inactive); in the assay with K562, > 225 µM (inactive); in the assay with KM-20L2, > 225 µM (inactive); in the assay on M19-MEL it was > 179 µM (inactive). Moreover, the GI50 in the assay with MCF7, in the assay with Malme-3M, in the assay with NCI-H23, in the assay with OVCAR-3, with RXF 393 and with SF-539 was > 225 µM (inactive) throughout. For the same molecule, the GI50 in the assay on SK-MEL-2 was > 225 µM (inactive); with SN12C, > 178 µM (inactive); with SNB-19 it was > 225 µM (inactive); with SW-620, > 225 µM (inactive); in the assay on UO-31, > 225 µM (inactive).

With `CCOC(=O)CNC(=O)NC12CC3CC(CC(C3)C1)C2`, the GI50 was 147 µM (inactive) with A498; 229 µM in the assay on HCT-15; 22.1 µM (inactive) in the assay on HOP-92; 226 µM (inactive) in the assay on K562; 237 µM (inactive) in the assay with KM-20L2; 111 µM (inactive) with M19-MEL. The GI50 in the assay with MCF7 was 115 µM (inactive); in the assay on Malme-3M it was 133 µM (inactive); in the assay with NCI-H23 it was 182 µM (inactive); in the assay on OVCAR-3, 153 µM (inactive); with RXF 393, 80.9 µM (inactive); in the assay on SF-539, 203 µM (inactive). Further, the GI50 in the assay with SK-MEL-2 was 141 µM (inactive); with SN12C, 219 µM (inactive); in the assay with SNB-19 it was 270 µM (inactive); in the assay on SW-620 it was 247 µM (inactive); in the assay with UO-31, 171 µM (inactive).

Take `c1ccc2c(c1)SCCc1cn[nH]c1-2`: the GI50 in the assay with A498 was > 100 µM (inactive); in the assay on HCT-15, over 100 µM; in the assay with HOP-92, > 73.5 µM (inactive); in the assay with K562, > 100 µM (inactive); in the assay with KM-20L2, > 100 µM (inactive); in the assay with M19-MEL, > 100 µM (inactive). Moreover, the GI50 with MCF7, with Malme-3M, in the assay with NCI-H23, in the assay on OVCAR-3, in the assay with RXF 393 and in the assay on SF-539 was > 100 µM (inactive) each time. In addition, the GI50 in the assay on SK-MEL-2, in the assay with SN12C, in the assay on SNB-19, with SW-620 and with UO-31 was > 100 µM (inactive) throughout.
